Measurements as given in publication PMC4365270 (Cancer Chemotherapy and Pharmacology, 2015).
Entries after “also recorded” stand apart in the source; their conditions may differ.

Assays:
[1] = tested on: caspase-3 generated cytokeratin-18 fragments (M30); assay: Plasma M30 ELISA; format: in vivo, human; conditions: day 5, p < 0.0033
Procedure: (§1) cIAP-1 levels were measured in tumor tissue and surrogate tissue as available. Peripheral blood mononuclear cells (PBMCs) were analyzed for DEBIO1143-induced cIAP-1 degradation. Plasma native cytokeratin-18 ([…]) or caspase-3 generated cytokeratin-18 fragments (M30), interleukin 8 (IL8), chemokine ligand 2 (CCL2, MCP1), and tumor necrosis factor α (TNFα) were measured by ELISA as markers of epithelial cell death and inflammation on days 1 (predose, 1, 3, 6, and 12 h postdose), 2, and 5. […] For the detection of cIAP-1 in paraffin-embedded human tissue, a validated immunohistochemical (IHC) assay was used. DEBIO1143-induced cIAP-1 degradation was measured in PBMCs using Western blot. Plasma biomarkers were measured through commercial ELISAs. All laboratory analyses were performed by MPI Research, Inc. (PK) and Mosaic Laboratory, LLC (PD).

[2] = Safety/tolerability: AE, ADR, DLT in patients with advanced cancer; format: in vivo
From the text: This was a multicenter, uncontrolled, open-label, dose-escalation study on DEBIO1143 in patients with advanced cancer. It employed an accelerated titration design for dose escalation with 100 % dose increments in consecutively enrolled single patients until drug-related grade-2 toxicity was observed during the initial treatment cycle (until day 28 or day 21 as per protocol amendment). If this was the case, cohort size was expanded to three patients and dosing increment was reduced to 50 % of the last dose. Dose escalation was to be stopped at the MTD which was considered exceeded if at any dose level more than one patient experienced dose-limiting toxicity (DLT) during the first treatment cycle. DLT was defined as any of the following: (a) non-hematological toxicity of grade ≥3 (excluding nausea, vomiting, diarrhea unless not controlled by maximal antiemetic/diarrheal therapy for >24 h); (b) anemia or neutropenia of grade ≥3 or thrombocytopenia of grade 4 or any grade if associated with clinically significant bleeding; (c) any AE resulting in dose delay or reduction; (d) any toxicity considered dose-limiting by the investigator. If only one out of the three patients of a cohort experienced drug-related DLT, the cohort was expanded by another three patients to be treated at the same dose level. If none of these additional patients experienced DLT, the dose escalation by 50 %, rounded down to the nearest capsule strength combination, continued in the next cohort of three patients.
The incidence of AE, ADR, and DLT was recorded at all scheduled visits (on days 1, 15, and 28 of each cycle and additionally on days 5, 8, and 22 of cycle 1) and graded according to the Common Terminology Criteria for Adverse Events, version 4.0 of the National Cancer Institute. Moreover, safety laboratory, 12-lead ECG, vital sign measurements, and physical examinations were performed.

[3] = tested on: multiple mouse cancer models; conditions: cited from earlier work
[4] = target: T1, cIAP-1 (Homo sapiens, UniProt Q13490); assay: cIAP1 IHC in skin and tumor biopsies; format: in vivo
T1 construct: endogenous in cells; host or cells: peripheral blood mononuclear cells (PBMCs) of patients
T1 sequence (Q13490 whole entry): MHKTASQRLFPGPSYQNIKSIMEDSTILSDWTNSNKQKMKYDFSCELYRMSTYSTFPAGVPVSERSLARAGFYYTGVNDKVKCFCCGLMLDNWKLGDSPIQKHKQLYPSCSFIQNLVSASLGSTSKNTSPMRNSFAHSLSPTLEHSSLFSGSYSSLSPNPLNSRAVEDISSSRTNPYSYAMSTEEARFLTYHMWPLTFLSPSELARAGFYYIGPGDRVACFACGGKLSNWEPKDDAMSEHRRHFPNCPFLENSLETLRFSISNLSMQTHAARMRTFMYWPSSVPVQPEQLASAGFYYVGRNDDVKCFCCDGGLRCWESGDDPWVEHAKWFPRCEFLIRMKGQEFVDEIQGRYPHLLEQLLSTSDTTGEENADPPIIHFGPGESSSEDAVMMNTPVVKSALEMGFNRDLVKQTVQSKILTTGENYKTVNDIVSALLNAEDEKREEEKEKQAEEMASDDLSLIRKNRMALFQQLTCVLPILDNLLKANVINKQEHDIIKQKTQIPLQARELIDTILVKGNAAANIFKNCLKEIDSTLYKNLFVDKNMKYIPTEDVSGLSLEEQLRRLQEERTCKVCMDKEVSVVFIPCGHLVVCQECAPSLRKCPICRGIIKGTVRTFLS
Procedure: Pharmacokinetic samples were taken from all patients on day 1 (predose, 0.5, 1, 2, 3, 4, 6, 8, 12, 18 h postdose) and on day 5 (predose, 0.5, 1, 2, 3, 4, 6, 8 h postdose) of the first cycle. In addition, for exploratory PD analysis of IAP inhibition and activation of apoptosis, optional skin and tumor biopsies were taken from consenting patients on days 1 (predose) and 5 and blood samples on day 1 (predose, 1, 3, 6, 8, 12 h postdose), day 2 (predose), and day 5 (3 h postdose).
cIAP-1 levels were measured in tumor tissue and surrogate tissue as available. Peripheral blood mononuclear cells (PBMCs) were analyzed for DEBIO1143-induced cIAP-1 degradation. Plasma native cytokeratin-18 (M65) or caspase-3 generated cytokeratin-18 fragments (M30), interleukin 8 (IL8), chemokine ligand 2 (CCL2, MCP1), and tumor necrosis factor α (TNFα) were measured by ELISA as markers of epithelial cell death and inflammation on days 1 (predose, 1, 3, 6, and 12 h postdose), 2, and 5.
For the detection of cIAP-1 in paraffin-embedded human tissue, a validated immunohistochemical (IHC) assay was used. DEBIO1143-induced cIAP-1 degradation was measured in PBMCs using Western blot. Plasma biomarkers were measured through commercial ELISAs. All laboratory analyses were performed by MPI Research, Inc. (PK) and Mosaic Laboratory, LLC (PD).

[5] = tested on: various human cancer cell lines; set-up: method as in PMID 21264751, PMID 22669575; conditions: in vitro; cited from earlier work
[6] = tested on: chemokine ligand 2 (CCL2, MCP1); assay: Plasma CCL2 ELISA; format: in vivo, human
Procedure: as §1

CN[C@@H](C)C(=O)N[C@H]1CN(C(=O)CC(C)C)CC[C@H]2CC[C@@H](C(=O)NC(c3ccccc3)c3ccccc3)N2C1=O [DEBIO1143]
Plasma level of M30 [1]: increased significantly | Deaths during the study ([2]; N=31): No patient died | Dose dependence of AEs ([2]; human, in vivo): neither incidence nor severity increased with dose | Dose-limiting toxicity observed ([2]; human, in vivo): grade 3 reversible ALT elevation | Grade 4–5 treatment-related AE ([2]; human, in vivo): no grade 4–5 treatment-related AE | Number of AEs ([2]; human, in vivo): 242 | Number of SAEs ([2]; human, in vivo): 13 | Number of dose-limiting toxicities (DLT) ([2]; human, in vivo): one | SAEs related to study drug ([2]; human, in vivo): none of which was considered related to study drug | Safety laboratory, ECG, vital signs, body weight, ECOG performance status ([2]; human, in vivo): No clinically meaningful trends | Maximum tolerated dose (MTD) ([2]; oral, days 1–5 every 2 or 3 weeks, up to 900 mg): No MTD was found; also recorded: not reached | Effect on irradiation or chemotherapeutic agents [3]: enhance the antitumoral effects | cIAP1 level in skin biopsies (IHC) ([4]; 12 patients): trend for a decrease | Immunoactivity of cIAP1 in tumor biopsy (IHC) ([4]; melanoma patient, 120 mg/day, day 5, predose 150): 130 | Percentage of cIAP1-positive cells in tumor biopsies ([4]; melanoma patient, 400 mg/d): only negligible effect | Cell growth [5]: inhibit cell growth | Patients with increased plasma CCL2 ([6]; 900 mg): five out of six | Plasma CCL2, mean increase ([6]; 900 mg, six patients): 45% | Plasma CCL2 increase, range ([6]; 900 mg, six patients): −6 to 54% | Plasma CCL2 increase, significance ([6]; 3 and 6 h postdose, p < 0.0001): significant | Patients with increased plasma CCL2 ([6]; all dose levels, 25 patients): 14
